Experimental findings from ChEMBL document CHEMBL1201862, “PubChem BioAssay data set” (2004) are described below.

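A five-concentration, 48-hour dose response in 96-well plates underlies each endpoint, interpolated linearly between surrounding concentrations. GI50: concentration for 50% inhibition of growth.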 Calls of active or inactive are those of the source. No stated cut-off is given here; in the data, active = GI50 up to about 1.1 µM and inactive = higher.

Some test systems named below: OVCAR-4; CAKI-1; SK-OV-3; NCI-H23; PC-3; 786-0; SN12C; SF-295; UO-31; MDA-N; COLO 205; HCT-116; NCI-H522; DU-145; NCI/ADR-RES; OVCAR-3; A549; LOX IMVI; HOP-92.
Assay in all cases: NCI-60 cell line screen, 48 h

On to `COc1ccc(NC2CC(C)N(C(=O)c3ccccc3)O2)cc1` (stereo not given), for which the GI50 in the experiment with OVCAR-4, in the experiment on CAKI-1, with SK-OV-3, with NCI-H23, in the experiment on PC-3 and in the experiment on 786-0 was > 10 µM (inactive) in each case. Also, the GI50 in the experiment with SN12C, in the experiment with SF-295, with UO-31, in the experiment with MDA-N, with COLO 205 and with HCT-116 was > 10 µM (inactive) throughout. Also, the GI50 in the experiment on NCI-H522, in the experiment with DU-145, with NCI/ADR-RES, in the experiment with OVCAR-3, with A549 and in the experiment on LOX IMVI was > 10 µM (inactive) each time.

As for `CC(NC(=O)c1ccccc1)NC(=O)C(C)C(=O)Nc1ccccc1` (stereo not given), the GI50 in the experiment on OVCAR-4, in the experiment with CAKI-1, in the experiment on SK-OV-3, in the experiment with NCI-H23, in the experiment on PC-3 and in the experiment on 786-0 was > 100 µM (inactive) in each case. Besides, the GI50 with SN12C is > 100 µM (inactive); in the experiment on SF-295 it was > 100 µM (inactive); with UO-31, > 100 µM (inactive); in the experiment on MDA-N, > 100 µM (inactive); in the experiment on HOP-92 it was 49.1 µM (inactive); in the experiment with COLO 205, > 100 µM (inactive). Also, the GI50 in the experiment with HCT-116, with NCI-H522, in the experiment on DU-145, in the experiment with NCI/ADR-RES and with A549 was > 100 µM (inactive) throughout.

With `C[C@]12CCC(O)CC1=CC[C@@H]1[C@@H]2CC[C@]2(C)C(O)[C@H](n3ccnc3)C[C@@H]12` (stereo not given in full), the GI50 with OVCAR-4 is > 100 µM (inactive); in the experiment on CAKI-1 it was > 100 µM (inactive); with NCI-H23 it was 19.5 µM (inactive); with PC-3 it was 41.5 µM (inactive); in the experiment with 786-0, > 100 µM (inactive); with SN12C, > 100 µM (inactive). The GI50 in the experiment on SF-295 was 52 µM (inactive); in the experiment on UO-31 it was > 100 µM (inactive); in the experiment on MDA-N, 79.3 µM (inactive); with HOP-92, 20.2 µM (inactive); in the experiment with COLO 205 it was 47.4 µM (inactive); with HCT-116, 59.4 µM (inactive). Further, the GI50 in the experiment with NCI-H522 is 58.6 µM (inactive); in the experiment on DU-145, > 100 µM (inactive); in the experiment with NCI/ADR-RES it was > 100 µM (inactive); in the experiment on OVCAR-3, 72.4 µM (inactive); in the experiment on A549, 81.7 µM (inactive); with LOX IMVI it was 39.2 µM (inactive).

Take `O=C(NC1CCC(=O)N1C(=O)OCc1ccccc1)OCc1ccccc1` (stereo not given): the GI50 in the experiment with CAKI-1, in the experiment on SK-OV-3, in the experiment with NCI-H23, with PC-3, in the experiment with 786-0 and in the experiment on SN12C was > 100 µM (inactive) each time. The GI50 in the experiment with SF-295, with UO-31, in the experiment with MDA-N, in the experiment on HOP-92, in the experiment with COLO 205 and in the experiment on NCI-H522 was > 100 µM (inactive) each time. For the same molecule, the GI50 in the experiment on DU-145, in the experiment with NCI/ADR-RES, with OVCAR-3 and in the experiment on A549 was > 100 µM (inactive) in each case.

Take `CNS(=O)(=O)c1ccc2c(c1)/C(=C1/Nc3ccccc3C1=O)C(=O)N2`: the GI50 is > 100 µM (inactive) in the experiment with CAKI-1; 92.9 µM (inactive) in the experiment with SK-OV-3; 9.4 µM (inactive) in the experiment with NCI-H23; > 100 µM (inactive) in the experiment with PC-3; > 100 µM (inactive) in the experiment with SN12C; > 100 µM (inactive) in the experiment with SF-295. Moreover, the GI50 in the experiment on UO-31, in the experiment on MDA-N, with COLO 205, in the experiment with HCT-116, with NCI-H522 and in the experiment on DU-145 was > 100 µM (inactive) each time. Further, the GI50 was 67.8 µM (inactive) in the experiment on NCI/ADR-RES, > 100 µM (inactive) in the experiment on OVCAR-3, > 100 µM (inactive) with A549 and > 100 µM (inactive) in the experiment with LOX IMVI.

Regarding `COC(=O)C1(C)CCc2c(ccc3ccccc23)C1=O` (stereo not given), the GI50 with CAKI-1 is 16.1 µM (inactive); in the experiment with SK-OV-3, 71.1 µM (inactive); with NCI-H23, 51.6 µM (inactive); with PC-3 it was 40.9 µM (inactive); in the experiment on 786-0, 65 µM (inactive); in the experiment on SN12C it was 44.7 µM (inactive). Also, the GI50 is 39.7 µM (inactive) with SF-295; 33.3 µM (inactive) in the experiment on UO-31; 27 µM (inactive) in the experiment with MDA-N; 45.4 µM (inactive) with HOP-92; 21.3 µM (inactive) with COLO 205; 33.7 µM (inactive) in the experiment with HCT-116. Moreover, the GI50 was 24.9 µM (inactive) with NCI-H522; 51.9 µM (inactive) with DU-145; 34.8 µM (inactive) in the experiment with NCI/ADR-RES; 30.1 µM (inactive) in the experiment with OVCAR-3; 39.3 µM (inactive) in the experiment on A549; 36.1 µM (inactive) with LOX IMVI.

For the molecule `C=CCOc1ccc(C(/N=N\c2ccc(Cl)cc2)=N/NC(=O)c2ccccc2)cc1OC`, the GI50 with OVCAR-4 is 76.7 µM (inactive); in the experiment with CAKI-1, > 100 µM (inactive); in the experiment on NCI-H23, 60 µM (inactive); in the experiment with PC-3, 49.5 µM (inactive); with 786-0 it was > 100 µM (inactive); in the experiment with SN12C, 50.5 µM (inactive). In addition, the GI50 with SF-295 is > 100 µM (inactive); with UO-31, 54.8 µM (inactive); in the experiment on MDA-N it was 35 µM (inactive); in the experiment with HOP-92, 32.1 µM (inactive); with COLO 205 it was 85.3 µM (inactive); in the experiment on HCT-116, 64.4 µM (inactive). Moreover, the GI50 is 41.3 µM (inactive) with NCI-H522; > 100 µM (inactive) in the experiment with DU-145; 72.4 µM (inactive) in the experiment on NCI/ADR-RES; 62.7 µM (inactive) with OVCAR-3; > 100 µM (inactive) with A549; 48 µM (inactive) in the experiment with LOX IMVI.

Consider `O=C1/C(=C/c2ccc3c(c2)CCC3)Cc2cc3c(cc21)CCC3`, for which the GI50 with OVCAR-4, with SK-OV-3, in the experiment with NCI-H23, in the experiment with PC-3, in the experiment on SN12C and in the experiment with SF-295 was > 100 µM (inactive) in each case. Further, the GI50 in the experiment with UO-31 is > 100 µM (inactive); in the experiment with MDA-N, > 100 µM (inactive); in the experiment on HOP-92 it was < 0.01 µM (active); in the experiment with COLO 205, > 100 µM (inactive); with HCT-116 it was > 100 µM (inactive); in the experiment on NCI-H522 it was > 100 µM (inactive). Further, the GI50 in the experiment on DU-145, in the experiment with NCI/ADR-RES, in the experiment with OVCAR-3, with A549 and in the experiment on LOX IMVI was > 100 µM (inactive) each time.

For `N#CC(=C1CCCCC1)c1nc2ccccc2o1`, the GI50 was 52.8 µM (inactive) in the experiment on OVCAR-4; 64.1 µM (inactive) with CAKI-1; > 100 µM (inactive) with SK-OV-3; 66.8 µM (inactive) with NCI-H23; 56.9 µM (inactive) in the experiment with PC-3; > 100 µM (inactive) in the experiment with 786-0. Moreover, the GI50 in the experiment on SN12C is > 100 µM (inactive); in the experiment with SF-295 it was > 100 µM (inactive); in the experiment with UO-31, 47.2 µM (inactive); with MDA-N it was 74.5 µM (inactive); in the experiment on HOP-92, 34.5 µM (inactive); in the experiment with COLO 205, 19.6 µM (inactive). Moreover, the GI50 in the experiment with HCT-116 was 55.3 µM (inactive); in the experiment with NCI-H522, 20.6 µM (inactive); in the experiment on DU-145 it was > 100 µM (inactive); with NCI/ADR-RES, 40 µM (inactive); in the experiment on OVCAR-3, 56.5 µM (inactive); in the experiment on A549, 51.1 µM (inactive).

For `C(=N\c1cc2cc(Sc3ccccc3)ccc2[nH]1)/c1ccccc1`, the GI50 in the experiment with OVCAR-4, with CAKI-1, in the experiment on NCI-H23, in the experiment with PC-3, in the experiment on 786-0 and in the experiment with SN12C was > 12.5 µM (inactive) in each case. For the same molecule, the GI50 with SF-295 is 11 µM (inactive); in the experiment with MDA-N it was 4.91 µM (inactive); in the experiment with HOP-92, > 12.5 µM (inactive); in the experiment with HCT-116, > 12.5 µM (inactive); with NCI-H522, > 12.5 µM (inactive); in the experiment with DU-145, > 12.5 µM (inactive). For the same molecule, the GI50 in the experiment on NCI/ADR-RES was > 12.5 µM (inactive); with OVCAR-3, > 12.5 µM (inactive); in the experiment with A549, 0.0818 µM (active); in the experiment with LOX IMVI, 5.85 µM (inactive).

In the case of `CC(=O)c1cc2ccccc2oc1=O` [3-ACETYLCOUMARIN], the GI50 in the experiment on OVCAR-4, in the experiment with CAKI-1, in the experiment with NCI-H23, with PC-3, in the experiment with 786-0 and in the experiment on SN12C was > 100 µM (inactive) in each case. Besides, the GI50 in the experiment on SF-295 is > 100 µM (inactive); in the experiment with UO-31, 92.3 µM (inactive); in the experiment on MDA-N, > 100 µM (inactive); in the experiment on HOP-92 it was 48.8 µM (inactive); in the experiment on COLO 205, > 100 µM (inactive); in the experiment on HCT-116, > 100 µM (inactive). Moreover, the GI50 in the experiment on NCI-H522, in the experiment with DU-145, with NCI/ADR-RES, in the experiment on OVCAR-3, in the experiment with A549 and in the experiment with LOX IMVI was > 100 µM (inactive) each time.
